Data published in ChEMBL document CHEMBL1129937, “Synthesis and dihydrofolate reductase inhibitory activities of 2,4-diamino-5-deaza and 2,4-diamino-5,10-dideaza lipophilic antifolates” (J Med Chem, 1997).

Key:
Dihydrofolate reductase [1] = biological target: T1, Dihydrofolate reductase (Pneumocystis carinii, UniProt P16184)
T1 sequence (P16184 whole entry): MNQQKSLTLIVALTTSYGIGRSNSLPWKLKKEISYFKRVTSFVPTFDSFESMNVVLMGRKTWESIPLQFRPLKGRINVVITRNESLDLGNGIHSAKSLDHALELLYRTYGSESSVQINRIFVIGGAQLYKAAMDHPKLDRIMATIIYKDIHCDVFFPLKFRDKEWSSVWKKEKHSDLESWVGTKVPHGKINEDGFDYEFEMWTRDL
Description: Inhibitory concentration against Dihydrofolate reductase from Pneumocystis carinii (pc)

Dihydrofolate reductase [2] = biological target: T2, Dihydrofolate reductase (Rattus norvegicus, UniProt Q920D2)
T2 sequence (Q920D2 whole entry): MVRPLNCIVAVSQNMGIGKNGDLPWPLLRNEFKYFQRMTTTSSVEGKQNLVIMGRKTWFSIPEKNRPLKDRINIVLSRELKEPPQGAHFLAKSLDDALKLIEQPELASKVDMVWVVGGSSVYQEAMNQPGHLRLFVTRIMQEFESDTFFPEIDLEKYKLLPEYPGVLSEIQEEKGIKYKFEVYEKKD
Description: Inhibitory concentration against Dihydrofolate reductase from Rat liver (rl)

[3] = biological target: T3, Bifunctional dihydrofolate reductase-thymidylate synthase (Toxoplasma gondii, UniProt Q07422)
T3 sequence (Q07422 whole entry): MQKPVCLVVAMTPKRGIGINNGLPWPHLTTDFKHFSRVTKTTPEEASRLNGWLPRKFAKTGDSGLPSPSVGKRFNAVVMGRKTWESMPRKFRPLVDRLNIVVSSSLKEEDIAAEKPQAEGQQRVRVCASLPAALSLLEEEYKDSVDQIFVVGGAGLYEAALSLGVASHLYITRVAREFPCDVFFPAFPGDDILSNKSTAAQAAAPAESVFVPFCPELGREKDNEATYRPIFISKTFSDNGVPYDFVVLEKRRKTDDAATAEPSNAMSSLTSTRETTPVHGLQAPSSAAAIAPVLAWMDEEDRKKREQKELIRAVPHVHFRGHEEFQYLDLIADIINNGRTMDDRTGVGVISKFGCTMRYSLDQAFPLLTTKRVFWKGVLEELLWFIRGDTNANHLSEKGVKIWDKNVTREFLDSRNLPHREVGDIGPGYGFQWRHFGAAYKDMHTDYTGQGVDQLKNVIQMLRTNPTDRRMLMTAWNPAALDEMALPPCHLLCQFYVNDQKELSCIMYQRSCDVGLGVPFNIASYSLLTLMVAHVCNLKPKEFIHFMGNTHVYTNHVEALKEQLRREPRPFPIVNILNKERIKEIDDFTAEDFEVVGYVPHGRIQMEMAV
Description: Inhibitory concentration against Dihydrofolate reductase from Toxoplasma gondii (tg)

SMILES | IC50 (Dihydrofolate reductase [1]) | IC50 (Dihydrofolate reductase [2]) | IC50 [3]
COc1ccc(/C=C/c2cnc3nc(N)nc(N)c3c2)cc1OC | 2600 nM | 2100 nM | 1400 nM
COc1ccc(/C=C/c2cnc3nc(N)nc(N)c3c2)cc1 | 5300 nM | 11800 nM | 1500 nM
COc1ccc(CCc2cnc3nc(N)nc(N)c3c2)cc1OC | 1400 nM | 610 nM | 200 nM
COc1ccc(CCc2cnc3nc(N)nc(N)c3c2)cc1 | 290 nM | 260 nM | 250 nM
COc1ccc(CCC2CNc3nc(N)nc(N)c3C2)cc1OC (stereo unspecified) | – | 2100 nM | 1100 nM
COc1cc(CCC2CNc3nc(N)nc(N)c3C2)cc(OC)c1OC (stereo unspecified) | 61700 nM | 6100 nM | 470 nM

Further lines, with some results ahead:

IC50 (Dihydrofolate reductase [1]) | IC50 (Dihydrofolate reductase [2]) | SMILES | IC50 [3]
– | 1140 nM | COc1cc(CCc2cnc3nc(N)nc(N)c3c2)cc(OC)c1OC | 200 nM
– | 280 nM | COc1cc(N(C)Cc2cnc3nc(N)nc(N)c3c2)cc(OC)c1OC | –
> 5000 nM | 12900 nM | COc1cc(/C=C/c2cnc3nc(N)nc(N)c3c2)cc(OC)c1OC | 1400 nM
– | 1900 nM | COc1cc(NCc2cnc3nc(N)nc(N)c3c2)cc(OC)c1OC | 300 nM
18500 nM | 7400 nM | COc1cc(N(C=O)Cc2cnc3nc(N)nc(N)c3c2)cc(OC)c1OC | 1100 nM
190 nM | 120 nM | CCN(Cc1cnc2nc(N)nc(N)c2c1)c1cc(OC)c(OC)c(OC)c1 | 49 nM
